# Tests used:
# Type in all cases: in vivo, male Wistar rats
# [1] = system: indomethacin-induced ulcers; experiment: Indomethacin-induced ulcer model, therapeutic treatment: healing of gastric lesions; design: key to gastroprotective activity (first value, GA1) / GA1 (gastroprotective activity calculated for number of lesions): GA1 = PI of control group / PI of experimental group; key to gastroprotective activity (second value, GA2): GA2 = UI of control group / UI of experimental group; key to Ulcer Index: UI = average lesion area in group × % animals with lesions / 100; Lesion Size: unit not given here
# Method: (§1) All studies were conducted on male Wistar rats weighing 220 ± 20 g, obtained from Rappolovo nursery (Leningrad oblast). For 14 days prior to the experiment, the animals were held in isolation. The animals were handled in accordance with the European Convention for the Protection of Vertebrate Animals used for Experimental and Other Scientific Purposes (Strasburg, 1986). The animals were held in standard plastic cages and fed a standard diet of PK120-3 (granulated feed in accordance with order # 1179 M3 USSR 10/10/1983) with a free access to water.
# (§2) Animals' body weight changes were monitored throughout the experiment. The experimental animals were then sacrificed by decapitation, and their blood was collected in test tubes. The stomachs were extracted, dissected along the major curve, rinsed with cold saline solution, and the mucosa was carefully examined through a magnifying glass under bright lights. The mucosa was inspected for color, the presence of hyperemia and its intensity. The number of lesions, which were differentiated into small round (less than 1 mm), linear, and large lesions (more than 1mm) and the size of the area they covered were calculated. The average number of lesions per one animal in a group and the percentage of animals with ulcers were also calculated. Pauls Index (PI) was used as an integral indicator of the number of lesions and was calculated as follows: • PI = average number of lesions in a group x % of animals with lesions/100 [Pauls F., Wick A.M.,Mac. Key E.M. et al. An assau method for anti ulcer substances // Gastroenterology.- 1947. #8.- p.p.774 - 782]. Ulcer index UI was calculated as: UI = average lesion area size in the group x % of animals with lesions/100; gastroprotective activity GA1 was calculated as: GA1 = PI of the control group/PI of the experimental group, GA2 = UI of the control group/UI of the experimental group.
# (§3) Five groups of 10 animals per group were prepared for the experiment as described in Example 1.
# In each series of the experiments, the animals were divided into experimental and control groups at 10 animals per group. The proposed medication or a comparator drug were orally administered to the animals in the experimental group, and the control animals were given distilled water in the same amount. • control group received distilled water per os; • experimental group 1 received 0.1 mkg/kg isovaleroyl glutamyl tryptophan; • experimental group 2 received 10 mkg/kg isovaleroyl glutamyl tryptophan; • experimental group 3 received 200 mkg/kg of the comparator drug Sucralfate.
# 2 ml/kg of the ulcerogenic dose of indomethacin equal to 30 mg/kg was administered intraperitoneally. The treatment started 24 hrs. post indomethacin administration and continued for 5 days. The animals in the experimental groups received N-isovaleroyl-L-glutamyl-L-tryptophan or the comparator drug Sucralfate, and the control group received distilled water.
# [2] = system: indomethacin-induced ulcers; experiment: as above; design: key to GA1 (gastroprotective activity calculated for number of lesions): GA1 = PI of control group / PI of experimental group; key to GA2 (gastroprotective activity calculated for lesion size): GA2 = UI of control group / UI of experimental group; key to Ulcer Index: UI = average lesion area in group × % animals with lesions / 100; Lesion Size: unit not given here
# [3] = system: indomethacin-induced gastric ulcers; experiment: Indomethacin-induced ulcer model, preventive treatment: gastric lesions; design: key to GA1 (gastroprotective activity calculated for number of lesions): GA1 = PI of control group / PI of experimental group; key to GA2 (gastroprotective activity calculated for lesion size): GA2 = UI of control group / UI of experimental group; key to Ulcer Index: UI = average lesion area size x % of animals with lesions/100; Small round Size / Total Size / Large round Size / Linear Size / Lesion Size: unit not given here
# Method: as §1
# as §2, with “group. The proposed drug was considered active when GA ≥ 2.” for “group.”
# as §3
# In each series of experiments, the animals were divided into experimental and control groups at 10 animals per group. The animals in the experimental group were orally administered the proposed medication or a comparator drug, and the control animals were given distilled water in the same amount. • control group received distilled water per os; • experimental group 1 received 0.1 mkg/kg N-isovaleroyl-L-glutamyl-L-tryptophan; • experimental group 2 received 10 mkg/kg N-isovaleroyl-L-glutamyl-L-tryptophan; • experimental group 3 received 200 mkg/kg of the comparator drug Sucralfate.
# The efficacy of the course of preventive treatment with the claimed composition was evaluated 24 hrs. post indomethacin administration. The study was conducted as in Example 1.
# [4] = 0.1 mkg/kg, treatment after Indomethacin
# [5] = Indomethacin 30 mg/kg + 10 mkg/kg, treatment 5 days
# [6] = Indomethacin 30 mg/kg + 1 mkg/kg, treatment 5 days
# [7] = 200 mg/kg + stress (so in the source)
# [8] = 200 mg/kg, indomethacin-induced ulcers
substance,measurement,setting,value
N-isovaleroyl-L-glutamyl-L-tryptophan [VGT preparation],"gastroprotective activity (first value, GA1)",[1]; [4],2
same,"gastroprotective activity (second value, GA2)",[1]; [4],2.6
same,# Lesions,[1]; [5],6.2 ± 1.3
same,% Animals with Ulcers,[1]; [5],100%
same,GA1 (gastroprotective activity calculated for number of lesions),[1]; [5],1.4
same,Lesion Size,[1]; [5],23.6 ± 6.1
same,PI,[1]; [5],6.2
same,Ulcer Index,[1]; [5],23.6
same,Pauls index lower than that of the control animals,[2]; [4],2 times
same,# Lesions,[2]; [6],4.1 ± 0.8
same,% Animals with Ulcers,[2]; [6],100%
same,GA1 (gastroprotective activity calculated for number of lesions),[2]; [6],2.0
same,GA2 (gastroprotective activity calculated for lesion size),[2]; [6],2.6
same,Lesion Size,[2]; [6],12.3 ± 3.5
same,PI,[2]; [6],4.1
same,Ulcer Index,[2]; [6],12.3
same,GA2 (gastroprotective activity calculated for lesion size),[2]; [5],1.4
aluminum complex of beta-D-fructofuranosyl-alpha-D-glucopyranoside octakis (hydrosulfate) [Sucralfate],# Lesions,[3]; [7],5.4 ± 1.4
same,% Animals with Ulcers,[3]; [7],80%
same,GA1 (gastroprotective activity calculated for number of lesions),[3]; [7],4.93
same,GA2 (gastroprotective activity calculated for lesion size),[3]; [7],8.56
same,Lesion Size,[3]; [7],3.3 ± 1.2
same,PI,[3]; [7],4.32
same,Ulcer Index,[3]; [7],2.64
same,Large round Amount,[3]; [8],2.4 ± 0.8
same,Large round Size,[3]; [8],1.0 ± 0.4
same,Linear Amount,[3]; [8],1.2 ± 0.4
same,Linear Size,[3]; [8],1.8 ± 0.9
same,Small round Amount,[3]; [8],1.8 ± 0.6
same,Small round Size,[3]; [8],0.5 ± 0.2
same,Total Amount,[3]; [8],5.4 ± 1.4
same,Total Size,[3]; [8],3.3 ± 1.2
